In brackets after ≈: the same amount, converted by molar mass. Where two headings read alike, the source gives them in different places.
What was measured:
[1] = tested on: Staphylococcus aureus; assay: Susceptibility testing, NCCLS microdilution MIC; assay type: cell-based; settings: ATCC25923, S. aureus ATCC 25923, Example A′, read-out: MIC S. aureus
[2] = tested on: Haemophilus influenzae; assay: Susceptibility testing, NCCLS microdilution MIC; assay type: cell-based; settings: Haemophilus influenzae, ATCC31517; H. influenzae ATCC 31517; Example A′; read-out: MIC H. influenzae
[3] = tested on: Enterococcus faecalis; assay: Susceptibility testing, NCCLS microdilution MIC; assay type: cell-based; settings: Enterococcus faecalis, ATCC29212; E. faecalis ATCC 29212; Example A′; read-out: MIC E. faecalis
[4] = tested on: Bacteroides fragilis; assay: Susceptibility testing, NCCLS microdilution MIC (anaerobe); assay type: cell-based; settings: Bacteroides fragilis, ATCC25285; B. fragilis ATCC 25285; Example A′; read-out: MIC B. fragilis
[5] = tested on: E. coli transcription/translation (bacterial protein synthesis, E. coli S30 extract); assay: In vitro inhibition of E. coli transcription and translation assay (TT), cell-free; assay type: biochemical; settings: for IC50: cell-free E. coli S30 extract; for In vitro inhibition of E. coli transcription and translation compared with literature azepine compound VIII(18): cell-free TT assay, comparison in words
Method: Inhibition of bacterial protein synthesis was assayed in a cell-free E. coli transcription/translation assay.
Stock solutions of compounds were prepared at 10 mg/mL in DMSO. The assay contained less or equal to 1% (v/v) final concentration of DMSO. Three-fold serial dilutions were prepared in assay buffer at 6-fold final concentration in 96 well microtiter plate.
All vials, tubes and microtiter plates are RNase free. The Mix was freshly prepared with 10 μl H2O, 10 μl AA-M, 10 μl AA-L, 80 μl Premix and 50 μl ES30 extract. The assay was performed in a 96-well plate. Five microliters of compounds at various concentrations (6-fold final assay concentration) were preincubated with 20 μl of the mix for 5 min at room temperature. The reaction started with addition of 5 μl of plasmid (˜0.1 mg/mL pGEMBGAL), and kept at 37° C. for 1 h followed by the addition of 150 μl of OPNG solution (4 mg/mL OPNG in 0.1M NaPi, pH 7.5, 1 mM MgCl2 and 2 mM DTT). 150 μl of the reaction was transferred to a ½-area plate and increase in absorption at OD420 nm was monitored for 10 min using a Spectramax plate reader (Molecular Devices). The slope of absorption change over time is corresponding to the pathway activity.
The E. coli S30 Extract for circular DNA kit was purchased from Promega. Original plasmid pGEMBGAL was obtained from Promega and amplified via Maxiprep in house. 2-Nitrophenyl β-D-galactopyranoside was obtained from Sigma. Clindamycin HCl (USP) was purchased from Spectrum.
The inhibition are expressed as percent of control activity (without inhibitor) which is calculated according to equation (1): Inhibition %=(compound slope-blank slope)/(control slope-blank slope)*100 (1)
All IC50s were determined by fitting the experimental data to equation (2) using software DeltaGraph (DeltaPoint Inc.): Y=Y0/(1+(X/IC50)[…])+c (2)
Where Y: activity at given inhibitor concentration; Y0: activity without inhibitor; X: inhibitor concentration; d: slope; c: constant.
Lincosamides inhibit bacterial growth through binding to the bacterial 50S ribosome, thus inhibiting peptide bond formation. The transcription/translation assay provides a screening tool to measure inhibition of bacterial protein synthesis pathway at the target level without the complication of differences in membrane permeability.

[6] = tested on: Staphylococcus aureus Smith; assay: Efficacy in murine S. aureus septicemia; assay type: in vivo, ICR mice; settings: for Efficacy in the murine S. aureus septicemia model relative to clindamycin: IV route of administration, compound given 1 hour after inoculation; for Efficacy in the murine S. aureus septicemia model relative to clindamycin / Efficacy in the murine S. aureus septicemia model by oral route: mice; for ED50: Staphylococcus aureus, murine S. aureus Smith septicemia, dosed 1 hour after inoculation, mortality 7 days; for Efficacy in the murine S. aureus septicemia model by oral route: oral route of administration
Method: (§1) Efficacy studies were performed in an S. aureus murine septicemia model according to models published elsewhere (Goldstein, B. P., G. Candiani, T. M. Arain, G. Romano, I. Ciciliato, M. Berti, M. Abbondi, R. Scotti, M. Mainini, F. Ripamonti, and et al. 1995. Antimicrobial activity of MDL 63,246, a new semisynthetic glycopeptide antibiotic Antimicrob. Agents Chemother. 39:1580-1588; Misiek, M., T. A. Pursiano, F. Leitner, and K. E. Price 1973. Microbiological properties of a new cephalosporin, BL-S 339:7-(phenylacetimidoyl-aminoacetamido)-3-(2-methyl-1,3,4-thiadiazol-5-ylthio methyl)ceph-3-em-4-carboxylic acid Antimicrob. Agents Chemother. 3:40-48).
Compounds were dissolved in 2% Tween 80 for oral dosing or 0.9% NaCl solution for intravenous dosing. Compounds were administered at 1 hour after bacterial inoculation. Vancomycin or ampicillin were used as controls.
(§2) Male or female ICR mice weighing 22±2 g from MDS Pharma Services were used for the evaluation. Food and water was given ad libitum. Groups of 6 mice weighing […] were used for the experiment. Mice were inoculated intraperitoneally with Staphylococcus aureus Smith at 4 104 CFU in 0.5 ml of Brain Heart Infusion Broth (Difco) containing 5% mucin (Sigma). Mortality was recorded once daily for 7 days following bacterial inoculation.
as §1, with “39:1580-1588.;” for “39:1580-1588;”, “339: 7-(phenylacetimidoyl-aminoacetamido)-3-(2-methyl-1,3,4-thiadiazol-5-ylthio” for “339:7-(phenylacetimidoyl-aminoacetamido)-3-(2-methyl-1,3,4-thiadiazol-5-ylthio”
as §2, with “mL” for “ml”

[7] = intravenous administration, read-out: ED50, IV
[8] = oral administration, read-out: ED50, PO

Structure (SMILES)	MIC [1] [mg/L]	MIC [2] [mg/L]	MIC [3] [mg/L]	MIC [4] [mg/L]	IC50 [5] [µM]	In vitro inhibition of E. coli transcription and translation compared with literature azepine compound VIII(18) [5]	Efficacy in the murine S. aureus septicemia model relative to clindamycin [6]	ED50 [6, 7] [mg/kg]	ED50 [6, 8] [mg/kg]	Efficacy in the murine S. aureus septicemia model by oral route [6]
CS[C@H]1O[C@H]([C@H](NC(=O)C2CC[C@H](CCCCF)CCN2)[C@H](C)Cl)[C@H](O)[C@H](O)[C@H]1O (stereo in doubt) [Example 3′, 5-(4-Fluoro-butyl)-azepane-2-carboxylic acid [2-chloro-1-(3,4,5-trihydroxy-6-methylsulfanyl-tetrahydro-pyran-2-yl)-propyl]-amide]	0.03 (≈ 0.0637 µM)	0.25 (≈ 0.531 µM)	0.06 (≈ 0.127 µM)	0.5 (≈ 1.06 µM)	0.19	markedly superior	three to greater than five fold better	0.32	–	–
CS[C@H]1O[C@H]([C@H](NC(=O)C2CC[C@H](CCCCF)CCN2)C(C)C)[C@H](O)[C@H](O)[C@H]1O (stereo in doubt) [Example 4′, 5-(4-Fluoro-butyl)-azepane-2-carboxylic acid [2-methyl-1-(3,4,5-trihydroxy-6-methylsulfanyl-tetrahydro-pyran-2-yl)-propyl]-amide]	0.06 (≈ 0.133 µM)	0.5 (≈ 1.11 µM)	0.125 (≈ 0.277 µM)	1 (≈ 2.22 µM)	0.49	markedly superior	three to greater than five fold better	0.28	–	–
CS[C@H]1O[C@H]([C@H](NC(=O)C2CC[C@H](CCCF)CCN2)[C@H](C)Cl)[C@H](O)[C@H](O)[C@H]1O (stereo in doubt) [Example 5′, 5-(3-Fluoro-propyl)-azepane-2-carboxylic acid [2-chloro-1-(3,4,5-trihydroxy-6-methylsulfanyl-tetrahydro-pyran-2-yl)-propyl]-amide]	0.03 (≈ 0.0656 µM)	0.25 (≈ 0.547 µM)	0.06 (≈ 0.131 µM)	0.25 (≈ 0.547 µM)	2.41	markedly superior	three to greater than five fold better	0.18	6.84	demonstrated the potential for use of the compounds as orally administered therapeutic agents
CS[C@H]1O[C@H]([C@H](NC(=O)C2CC[C@H](CCCC#N)CCN2)[C@H](C)Cl)[C@H](O)[C@H](O)[C@H]1O (stereo in doubt) [Example 7′, 5-(3-Cyano-propyl)-azepane-2-carboxylic acid [2-chloro-1-(3,4,5-trihydroxy-6-methylsulfanyl-tetrahydro-pyran-2-yl)-propyl]-amide]	0.125 (≈ 0.269 µM)	0.5 (≈ 1.08 µM)	0.25 (≈ 0.539 µM)	4 (≈ 8.62 µM)	0.32	markedly superior	three to greater than five fold better	0.29	> 30	–
CS[C@H]1O[C@H]([C@H](NC(=O)C2CC[C@H](CCCF)CCN2)C(C)C)[C@H](O)[C@H](O)[C@H]1O (some centres unmarked) [Example 6′]	0.06 (≈ 0.137 µM)	2 (≈ 4.58 µM)	0.25 (≈ 0.573 µM)	1 (≈ 2.29 µM)	0.76	markedly superior	three to greater than five fold better	0.28	–	–
COCCC[C@@H]1CCN[C@H](C(=O)N[C@@H]([C@H]2O[C@H](SC)[C@H](O)[C@@H](O)[C@H]2O)[C@H](C)Cl)CC1 [Example 13′, 5-(3-Methoxy-propyl)-azepane-2-carboxylic acid [2-chloro-1-(3,4,5-trihydroxy-6-methylsulfanyl-tetrahydro-pyran-2-yl)-propyl]-amide]	0.06 (≈ 0.128 µM)	1 (≈ 2.13 µM)	0.5 (≈ 1.07 µM)	4 (≈ 8.53 µM)	0.83	markedly superior	three to greater than five fold better	0.28	6.84	demonstrated the potential for use of the compounds as orally administered therapeutic agents

From patent US7361743B2 (Pfizer Inc, priority 2004, dated 2008)
